We go through two molecules from patent US6514963B2, “Methods for the inhibition of egg production in trematodes” (The Regents of the University of California, priority 2000, dated 2003).

Structures are written as SMILES.

Assay [1] deals with Schistosoma mansoni. Put plainly: Schistosoma mansoni in vitro egg production, eight day culture of worm pairs. It counts as cell-based.
Assay [2] concerns Echinostoma caproni. Conditions: elevated concentrations (microgram range: verapamil 50-200, nifedipine 25-200, diltiazem 5-50 μg/ml), 24 hours, ANOVA.
Assay [3] concerns the target T1, L channels of isolated skeletal muscle (Oryctolagus cuniculus, UniProt P07293).
T1 construct: host or cells: isolated skeletal muscle
The following applies: read-out: concentration of calcium required for 50% inhibition (Ki) of verapamil binding; isolated skeletal muscle (Galizzi et al. 1984); cited from earlier work.

T1 sequence (P07293 whole entry): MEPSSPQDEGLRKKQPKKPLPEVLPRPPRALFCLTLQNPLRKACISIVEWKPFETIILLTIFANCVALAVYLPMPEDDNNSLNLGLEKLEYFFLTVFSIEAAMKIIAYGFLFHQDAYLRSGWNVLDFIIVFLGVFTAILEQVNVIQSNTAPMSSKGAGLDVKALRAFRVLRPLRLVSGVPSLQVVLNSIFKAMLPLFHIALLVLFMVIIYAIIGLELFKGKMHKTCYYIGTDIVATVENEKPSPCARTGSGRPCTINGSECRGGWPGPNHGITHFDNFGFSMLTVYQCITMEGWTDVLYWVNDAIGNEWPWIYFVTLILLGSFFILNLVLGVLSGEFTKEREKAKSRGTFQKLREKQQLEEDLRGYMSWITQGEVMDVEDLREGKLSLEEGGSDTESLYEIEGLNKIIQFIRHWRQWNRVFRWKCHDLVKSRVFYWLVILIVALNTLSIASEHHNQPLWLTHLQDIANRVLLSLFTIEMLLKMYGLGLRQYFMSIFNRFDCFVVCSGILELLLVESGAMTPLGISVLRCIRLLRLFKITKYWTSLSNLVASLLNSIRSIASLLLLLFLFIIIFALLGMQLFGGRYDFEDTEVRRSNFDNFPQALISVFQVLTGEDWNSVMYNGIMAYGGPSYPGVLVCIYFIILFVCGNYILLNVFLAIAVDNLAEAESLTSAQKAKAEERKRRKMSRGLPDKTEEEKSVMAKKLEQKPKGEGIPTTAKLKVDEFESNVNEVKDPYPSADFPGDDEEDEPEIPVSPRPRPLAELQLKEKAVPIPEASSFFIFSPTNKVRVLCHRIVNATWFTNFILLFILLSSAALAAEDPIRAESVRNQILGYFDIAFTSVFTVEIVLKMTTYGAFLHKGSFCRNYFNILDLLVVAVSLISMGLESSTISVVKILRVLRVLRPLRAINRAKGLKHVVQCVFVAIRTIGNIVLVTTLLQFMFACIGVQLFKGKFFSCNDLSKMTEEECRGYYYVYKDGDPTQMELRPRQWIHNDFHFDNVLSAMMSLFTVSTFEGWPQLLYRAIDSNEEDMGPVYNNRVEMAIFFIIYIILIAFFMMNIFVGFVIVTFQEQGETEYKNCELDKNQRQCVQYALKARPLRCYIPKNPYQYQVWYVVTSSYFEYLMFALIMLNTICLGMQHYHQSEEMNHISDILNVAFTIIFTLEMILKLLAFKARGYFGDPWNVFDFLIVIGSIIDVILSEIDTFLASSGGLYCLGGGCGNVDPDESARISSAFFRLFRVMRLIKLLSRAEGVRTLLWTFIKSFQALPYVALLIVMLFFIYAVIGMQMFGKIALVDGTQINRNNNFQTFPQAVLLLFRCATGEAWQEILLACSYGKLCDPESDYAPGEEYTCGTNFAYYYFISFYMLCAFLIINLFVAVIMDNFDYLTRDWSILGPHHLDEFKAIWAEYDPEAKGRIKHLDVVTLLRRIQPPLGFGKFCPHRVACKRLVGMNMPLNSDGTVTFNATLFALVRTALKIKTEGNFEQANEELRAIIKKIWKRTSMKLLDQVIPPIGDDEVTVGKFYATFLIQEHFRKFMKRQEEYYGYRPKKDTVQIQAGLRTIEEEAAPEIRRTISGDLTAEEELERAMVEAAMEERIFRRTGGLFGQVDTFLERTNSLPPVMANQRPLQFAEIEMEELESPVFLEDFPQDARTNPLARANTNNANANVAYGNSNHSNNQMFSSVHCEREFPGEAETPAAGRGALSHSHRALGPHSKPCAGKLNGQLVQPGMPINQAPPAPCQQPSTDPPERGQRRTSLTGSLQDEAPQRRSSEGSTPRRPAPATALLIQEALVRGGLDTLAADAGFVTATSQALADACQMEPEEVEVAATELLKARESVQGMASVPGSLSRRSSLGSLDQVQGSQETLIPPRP
T1 sequence (P13806 27-960 partner limits assumed): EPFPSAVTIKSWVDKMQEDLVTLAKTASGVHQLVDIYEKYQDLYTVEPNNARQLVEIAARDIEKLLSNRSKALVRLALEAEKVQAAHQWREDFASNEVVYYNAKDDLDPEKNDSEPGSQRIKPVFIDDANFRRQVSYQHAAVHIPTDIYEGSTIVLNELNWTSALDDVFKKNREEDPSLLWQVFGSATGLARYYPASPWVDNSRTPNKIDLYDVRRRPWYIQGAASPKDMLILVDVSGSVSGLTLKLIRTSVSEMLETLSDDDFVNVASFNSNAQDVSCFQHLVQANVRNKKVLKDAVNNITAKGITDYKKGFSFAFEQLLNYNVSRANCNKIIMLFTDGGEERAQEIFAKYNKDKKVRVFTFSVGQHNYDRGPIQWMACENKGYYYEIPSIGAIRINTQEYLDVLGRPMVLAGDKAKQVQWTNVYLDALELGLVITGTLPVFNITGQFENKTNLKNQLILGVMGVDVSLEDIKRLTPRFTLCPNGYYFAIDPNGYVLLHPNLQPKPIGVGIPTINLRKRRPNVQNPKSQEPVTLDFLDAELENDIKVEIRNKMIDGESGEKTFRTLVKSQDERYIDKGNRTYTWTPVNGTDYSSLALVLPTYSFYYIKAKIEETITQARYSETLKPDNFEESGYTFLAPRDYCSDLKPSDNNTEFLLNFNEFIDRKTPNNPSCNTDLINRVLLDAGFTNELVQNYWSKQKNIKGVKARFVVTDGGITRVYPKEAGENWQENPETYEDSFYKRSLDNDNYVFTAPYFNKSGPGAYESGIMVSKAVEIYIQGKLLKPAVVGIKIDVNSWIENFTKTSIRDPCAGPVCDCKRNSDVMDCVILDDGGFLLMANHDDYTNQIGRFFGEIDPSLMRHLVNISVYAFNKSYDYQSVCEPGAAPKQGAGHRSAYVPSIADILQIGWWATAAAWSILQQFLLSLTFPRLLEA
T1 sequence (P13806 961-1106 partner limits assumed): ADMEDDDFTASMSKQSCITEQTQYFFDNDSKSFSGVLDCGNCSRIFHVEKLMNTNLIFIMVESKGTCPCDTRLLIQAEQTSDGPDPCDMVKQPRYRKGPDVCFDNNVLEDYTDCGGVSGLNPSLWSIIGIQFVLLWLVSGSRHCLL
T1 sequence (P19517 whole entry partner): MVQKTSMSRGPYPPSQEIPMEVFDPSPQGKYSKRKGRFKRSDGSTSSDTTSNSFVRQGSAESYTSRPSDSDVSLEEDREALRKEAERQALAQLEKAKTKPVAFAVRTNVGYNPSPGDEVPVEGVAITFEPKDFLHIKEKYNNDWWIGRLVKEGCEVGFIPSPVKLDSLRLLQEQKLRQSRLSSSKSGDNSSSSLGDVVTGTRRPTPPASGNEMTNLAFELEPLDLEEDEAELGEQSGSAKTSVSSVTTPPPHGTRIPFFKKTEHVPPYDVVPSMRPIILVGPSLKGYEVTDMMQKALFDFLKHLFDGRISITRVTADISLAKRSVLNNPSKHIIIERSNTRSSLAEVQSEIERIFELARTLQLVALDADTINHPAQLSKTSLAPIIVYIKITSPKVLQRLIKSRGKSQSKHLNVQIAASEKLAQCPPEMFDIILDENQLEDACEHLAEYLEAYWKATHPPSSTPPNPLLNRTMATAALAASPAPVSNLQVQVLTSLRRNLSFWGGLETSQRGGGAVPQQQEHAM
T1 sequence (P19518 whole entry partner): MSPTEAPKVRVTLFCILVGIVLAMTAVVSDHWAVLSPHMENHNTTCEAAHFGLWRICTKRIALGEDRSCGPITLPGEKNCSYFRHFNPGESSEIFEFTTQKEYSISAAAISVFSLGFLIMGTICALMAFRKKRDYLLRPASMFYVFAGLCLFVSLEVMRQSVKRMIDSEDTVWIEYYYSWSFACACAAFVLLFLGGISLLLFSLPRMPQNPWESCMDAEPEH

Regarding `COc1ccc(CCN(C)CCCC(C#N)(c2ccc(OC)c(OC)c2)C(C)C)cc1OC` (stereo not drawn) [verapamil, α-[3-[[2-(3,4-dimethoxyphenyl)ethyl]methyl-amine]propyl]-3,4-dimethoxy-α-(1-methylethyl)-benzeneacetonitrile], the “effect on proportion of worms which did not produce eggs until after 48 hours of culture” value in assay [1] (0.25 μg/ml) is listed as “not”; in assay [1] (2.5 μg/ml, Fisher's exact test, p=0.013), “significantly increased”. Also, the “effect on proportion of worms producing eggs in the three production categories” value in assay [1] (0.25 μg/ml and 2.5 μg/ml, Chi Square 4.15, p=0.386) is “did not significantly affect”. The “decrease in the total number of eggs produced by all worms of the treatment group” value in assay [1] (2.5 μg/ml, eight days) stood at 38%; in assay [1] (50 μg/ml, eight days), 100%. The “worms in the highest egg-production category” value in assay [1] (2.5 μg/ml, control worms 34%) was determined as 15%. In assay [1] (25 μg/ml as printed, control worms 17%), this molecule returned a proportion of non-producers of 30%. For the same molecule, the “effect on proportion of non-producers, pairwise comparison with control” value in assay [1] (50 μg, Fisher Exact test, 2-tailed, p<0.0001) is “significantly affected egg production”. Further, the egg production entry in assay [1] (50 μg/ml, eight days) was “no eggs were produced at any time”. Also, the entries for the “number of worms producing eggs 48+ Hours” value in assay [1] (verapamil 0.25 μg/ml), in assay [1] (verapamil 2.5 μg/ml) and in assay [1] (verapamil 50 μg/ml) were 8, 14 and 0, respectively. Also, the figures for the “number of worms producing eggs within 48 Hours” value in assay [1] (verapamil 0.25 μg/ml), in assay [1] (verapamil 2.5 μg/ml) and in assay [1] (verapamil 50 μg/ml) were 24, 14 and 0, respectively. The “effect on egg production compared to controls” value in assay [2] is “significantly inhibited”.

As to `[Ca]` [calcium], the Ki in assay [3] was roughly 300 µM.
